Reference: patent US10023570B2 (Array BioPharma, Inc., priority 2015, dated 2018)
Where a name gives a salt, the structure may show the parent alone.

Target: human KDR protein in HEK-293 cells (Homo sapiens (Human), UniProt P35968)
Test: KDR Cell Assay (phospho-KDR in HEK-293 cells expressing inducible KDR)
Assay type: cell-based
Settings: pKDR Cell HEK 10% FBS IC50, HEK-293 cells expressing inducible KDR, VEGF stimulated
In short: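 HEK-293 cells with inducible human KDR were treated with compound for 1 h in DMEM (0.25% DMSO final), then lysed. Phospho-KDR was quantified by Meso Scale immunoassay, expressed as percent of control, and IC50 taken where a 4-parameter logistic fit crossed 50 POC.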

Sequence of human KDR protein in HEK-293 cells (P35968 20-1356): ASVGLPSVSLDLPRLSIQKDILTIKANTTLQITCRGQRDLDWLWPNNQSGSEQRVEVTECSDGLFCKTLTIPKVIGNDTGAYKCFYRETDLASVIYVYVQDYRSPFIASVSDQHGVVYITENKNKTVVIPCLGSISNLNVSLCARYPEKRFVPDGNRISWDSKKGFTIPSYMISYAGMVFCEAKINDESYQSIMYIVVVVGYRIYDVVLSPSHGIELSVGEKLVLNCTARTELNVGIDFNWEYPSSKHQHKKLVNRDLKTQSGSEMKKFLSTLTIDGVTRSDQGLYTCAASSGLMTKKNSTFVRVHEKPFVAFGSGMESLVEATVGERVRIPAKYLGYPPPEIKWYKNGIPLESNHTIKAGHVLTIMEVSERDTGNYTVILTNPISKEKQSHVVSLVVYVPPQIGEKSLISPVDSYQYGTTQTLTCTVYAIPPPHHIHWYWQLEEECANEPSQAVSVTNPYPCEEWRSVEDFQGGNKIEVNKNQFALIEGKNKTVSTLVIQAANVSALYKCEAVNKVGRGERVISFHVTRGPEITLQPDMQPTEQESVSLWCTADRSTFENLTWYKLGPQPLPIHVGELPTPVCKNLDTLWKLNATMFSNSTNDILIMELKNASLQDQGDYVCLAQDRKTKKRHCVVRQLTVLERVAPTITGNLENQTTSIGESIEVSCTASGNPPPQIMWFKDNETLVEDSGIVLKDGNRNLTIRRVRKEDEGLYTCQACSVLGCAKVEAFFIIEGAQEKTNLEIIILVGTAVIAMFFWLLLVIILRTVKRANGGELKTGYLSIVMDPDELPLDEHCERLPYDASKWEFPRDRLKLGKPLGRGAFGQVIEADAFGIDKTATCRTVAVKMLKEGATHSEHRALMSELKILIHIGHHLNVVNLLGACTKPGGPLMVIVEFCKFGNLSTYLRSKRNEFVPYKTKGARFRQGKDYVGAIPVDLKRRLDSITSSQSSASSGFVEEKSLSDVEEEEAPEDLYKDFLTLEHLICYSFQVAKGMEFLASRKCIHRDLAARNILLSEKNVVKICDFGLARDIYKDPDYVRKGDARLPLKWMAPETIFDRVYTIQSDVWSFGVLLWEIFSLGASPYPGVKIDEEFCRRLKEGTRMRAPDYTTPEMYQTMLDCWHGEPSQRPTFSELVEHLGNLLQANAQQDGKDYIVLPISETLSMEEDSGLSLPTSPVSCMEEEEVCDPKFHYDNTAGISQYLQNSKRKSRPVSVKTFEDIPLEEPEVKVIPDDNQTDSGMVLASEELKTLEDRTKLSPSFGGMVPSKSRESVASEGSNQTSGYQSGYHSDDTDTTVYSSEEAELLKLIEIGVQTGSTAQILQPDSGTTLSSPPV

Structure (SMILES) | IC50 (10% FBS) | IC50
Cn1cc(-c2cc(-c3ccc(N4CCN(C(=O)CN5CCOCC5)CC4)nc3)c3c(C#N)cnn3c2)cn1 [Example 362, 6-(1-methyl-1H-pyrazol-4-yl)-4-(6-(4-(2-morpholinoacetyl)piperazin-1-yl)pyridin-3-yl)pyrazolo[1,5-a]pyridine-3-carbonitrile bis(2,2,2-trifluoroacetate)] | 1.86 µM | –
CCn1cc(CN2CCN(c3ccc(-c4cc(-c5cnn(C)c5)cn5ncc(C#N)c45)cn3)CC2)cn1 [Example 446, 4-(6-(4-((1-ethyl-1H-pyrazol-4-yl)methyl)piperazin-1-yl)pyridin-3-yl)-6-(1-methyl-1H-pyrazol-4-yl)pyrazolo[1,5-a]pyridine-3-carbonitrile] | – | 1.47 µM
COc1ccc(C2(C(=O)N3CCN(c4ccc(-c5cc(-c6cnn(C)c6)cn6ncc(C#N)c56)cn4)CC3)CC2)cc1 [Example 344, 4-(6-(4-(1-(4-methoxyphenyl)cyclopropanecarbonyl)piperazin-1-yl)pyridin-3-yl)-6-(1-methyl-1H-pyrazol-4-yl)pyrazolo[1,5-a]pyridine-3-carbonitrile] | 0.385 µM | –
Cn1cc(-c2cc(-c3ccc(N4CCN(C(=O)C5(C(F)(F)F)CC5)CC4)nc3)c3c(C#N)cnn3c2)cn1 [Example 346, 6-(1-methyl-1H-pyrazol-4-yl)-4-(6-(4-(1-(trifluoromethyl)cyclopropanecarbonyl)piperazin-1-yl)pyridin-3-yl)pyrazolo[1,5-a]pyridine-3-carbonitrile] | 1.77 µM | –
Cn1cc(-c2cc(-c3ccc(N4CCN(C(=O)Cc5ccc(OC(F)(F)F)cc5)CC4)nc3)c3c(C#N)cnn3c2)cn1 [Example 357, 6-(1-methyl-1H-pyrazol-4-yl)-4-(6-(4-(2-(4-(trifluoromethoxy)phenyl)acetyl)piperazin-1-yl)pyridin-3-yl)pyrazolo[1,5-a]pyridine-3-carbonitrile 2,2,2-trifluoroacetate] | 2.04 µM | –
Cn1cc(-c2cc(-c3ccc(N4CCN(Cc5cccc(F)c5)CC4)nc3)c3c(C#N)cnn3c2)cn1 [Example 428, 4-(6-(4-(3-fluorobenzyl)piperazin-1-yl)pyridin-3-yl)-6-(1-methyl-1H-pyrazol-4-yl)pyrazolo[1,5-a]pyridine-3-carbonitrile] | – | 0.88 µM
Cn1cc(-c2cc(-c3ccc(N4CCN(C(=O)N5CCCCC5)CC4)nc3)c3c(C#N)cnn3c2)cn1 [Example 93, 6-(1-methyl-1H-pyrazol-4-yl)-4-(6-(4-(piperidine-1-carbonyl)piperazin-1-yl)pyridin-3-yl)pyrazolo[1,5-a]pyridine-3-carbonitrile] | 1.7 µM | –
Cn1cc(-c2cc(-c3ccc(N4CCN(C(=O)N5CC[C@@H](F)C5)CC4)nc3)c3c(C#N)cnn3c2)cn1 [Example 103, (R)-4-(6-(4-(3-fluoropyrrolidine-1-carbonyl)piperazin-1-yl)pyridin-3-yl)-6-(1-methyl-1H-pyrazol-4-yl)pyrazolo[1,5-a]pyridine-3-carbonitrile] | 0.848 µM | –
Cn1cc(-c2cc(-c3ccc(N4CCC(Oc5ccc(Cl)cc5)CC4)nc3)c3c(C#N)cnn3c2)cn1 [Example 509, 4-(6-(4-(4-chlorophenoxy)piperidin-1-yl)pyridin-3-yl)-6-(1-methyl-1H-pyrazol-4-yl)pyrazolo[1,5-a]pyridine-3-carbonitrile] | – | 0.0092 µM
Cn1cc(-c2cc(-c3ccc(N4CC5(CCOCC5)C4)nc3)c3c(C#N)cnn3c2)cn1 [Example 527, 4-(6-(7-oxa-2-azaspiro[3.5]nonan-2-yl)pyridin-3-yl)-6-(1-methyl-1H-pyrazol-4-yl)pyrazolo[1,5-a]pyridine-3-carbonitrile 2,2,2-trifluoroacetate] | – | 0.918 µM
Cn1cc(-c2cc(-c3ccc(N4CCN(C(=O)[C@H](O)c5ccccc5)CC4)nc3)c3ccnn3c2)cn1 [Example 313, (R)-2-hydroxy-1-(4-(5-(6-(1-methyl-1H-pyrazol-4-yl)pyrazolo[1,5-a]pyridin-4-yl)pyridin-2-yl)piperazin-1-yl)-2-phenylethanone] | ≥ 5 µM | –
Cn1cc(-c2cc(-c3ccc(N4CCN(C(=O)N5CC[C@@H](c6ccccc6)C5)CC4)nc3)c3c(C#N)cnn3c2)cn1 [Example 375, (S)-6-(1-methyl-1H-pyrazol-4-yl)-4-(6-(4-(3-phenylpyrrolidine-1-carbonyl)piperazin-1-yl)pyridin-3-yl)pyrazolo[1,5-a]pyridine-3-carbonitrile] | – | 0.841 µM
Cn1cc(-c2cc(-c3ccc(N4CCN(S(=O)(=O)N5CCCC5)CC4)nc3)c3c(C#N)cnn3c2)cn1 [Example 138, 6-(1-methyl-1H-pyrazol-4-yl)-4-(6-(4-(pyrrolidin-1-ylsulfonyl)piperazin-1-yl)pyridin-3-yl)pyrazolo[1,5-a]pyridine-3-carbonitrile] | 0.0161 µM | –
Cc1cncc(CN2CCN(c3ccc(-c4cc(-c5cnn(C)c5)cn5ncc(C#N)c45)cn3)CC2)n1 [Example 431, 6-(1-methyl-1H-pyrazol-4-yl)-4-(6-(4-((6-methylpyrazin-2-yl)methyl)piperazin-l-yl)pyridin-3-yl)pyrazolo[1,5-a]pyridine-3-carbonitrile] | – | 1.5 µM
Cn1cc(-c2cc(-c3ccc(N4CCN(C(=O)C[C@H](N)c5ccccc5)CC4)nc3)c3c(C#N)cnn3c2)cn1 [Example 23, (S)-4-(6-(4-(3-amino-3-phenylpropanoyl)piperazin-1-yl)pyridin-3-yl)-6-(1-methyl-1H-pyrazol-4-yl)pyrazolo[1,5-a]pyridine-3-carbonitrile dihydrochloride] | 0.0454 µM | –
Cn1cc(-c2cc(-c3ccc(N4CCC(Oc5ccccc5)CC4)nc3)c3c(C#N)cnn3c2)cn1 [Example 508] | – | 0.0029 µM
Cn1cc(-c2cc(-c3ccc(N4CCN(C(=O)N5CC[C@H](F)C5)CC4)nc3)c3c(C#N)cnn3c2)cn1 [Example 102, (S)-4-(6-(4-(3-fluoropyrrolidine-1-carbonyl)piperazin-1-yl)pyridin-3-yl)-6-(1-methyl-1H-pyrazol-4-yl)pyrazolo[1,5-a]pyridine-3-carbonitrile] | 0.551 µM | –
Cn1cc(-c2cc(-c3ccc(N4CCC5(CCN(C(=O)OC(C)(C)C)CC5)CC4)nc3)c3c(C#N)cnn3c2)cn1 [Example 511, tert-butyl 9-(5-(3-cyano-6-(1-methyl-1H-pyrazol-4-yl)pyrazolo[1,5-a]pyridin-4-yl)pyridin-2-yl)-3,9-diazaspiro[5.5]undecane-3-carboxylate] | – | 1.05 µM
COC[C@H]1CCCN1C(=O)N1CCN(c2ccc(-c3cc(-c4cnn(C)c4)cn4ncc(C#N)c34)cn2)CC1 [Example 110, (R)-4-(6-(4-(2-(methoxymethyl)pyrrolidine-1-carbonyl)piperazin-1-yl)pyridin-3-yl)-6-(1-methyl-1H-pyrazol-4-yl)pyrazolo[1,5-a]pyridine-3-carbonitrile] | 1.31 µM | –
CC(C)CS(=O)(=O)N1CCN(c2ccc(-c3cc(-c4cnn(C)c4)cn4ncc(C#N)c34)cn2)CC1 [Example 90, 4-(6-(4-(isobutylsulfonyl)piperazin-1-yl)pyridin-3-yl)-6-(1-methyl-1H-pyrazol-4-yl)pyrazolo[1,5-a]pyridine-3-carbonitrile] | 0.0241 µM | –
Cn1cc(-c2cc(-c3ccc(N4CCN(Cc5ccccn5)CC4)nc3)c3c(C#N)cnn3c2)cn1 [Example 473, 6-(1-methyl-1H-pyrazol-4-yl)-4-(6-(4-(pyridine-2-ylmethyl)piperazin-1-yl)pyridin-3-yl)pyrazolo[1,5-a]pyridine-3-carbonitrile] | – | 0.968 µM
CN(C)c1ccccc1CN1CCN(c2ccc(-c3cc(-c4cnn(C)c4)cn4ncc(C#N)c34)cn2)CC1 [Example 460, 4-(6-(4-(2-(dimethylamino)benzyl)piperazin-1-yl)pyridin-3-yl)-6-(1-methyl-1H-pyrazol-4-yl)pyrazolo[1,5-a]pyridine-3-carbonitrile] | – | 1.78 µM
CN(C)c1ccc(CN2CCN(c3ccc(-c4cc(-c5cnn(C)c5)cn5ncc(C#N)c45)cn3)CC2)cc1 [Example 461, 4-(6-(4-(4-(dimethylamino)benzyl)piperazin-1-yl)pyridin-3-yl)-6-(1-methyl-1H-pyrazol-4-yl)pyrazolo[1,5-a]pyridine-3-carbonitrile] | – | 0.129 µM
Cc1cnc(C(=O)N2CCN(c3ccc(-c4cc(-c5cnn(C)c5)cn5ncc(C#N)c45)cn3)CC2)cn1 [Example 49, 6-(1-methyl-1H-pyrazol-4-yl)-4-(6-(4-(5-methylpyrazine-2-carbonyl)piperazin-1-yl)pyridin-3-yl)pyrazolo[1,5-a]pyridine-3-carbonitrile bis(2,2,2-trifluoroacetate)] | 0.237 µM | –
Cn1cc(-c2cc(-c3ccc(N4CCN(CC5CCOCC5)CC4)nc3)c3c(C#N)cnn3c2)cn1 [Example 466, 6-(1-methyl-1H-pyrazol-4-yl)-4-(6-(4-((tetrahydro-2H-pyran-4-yl)methyl)piperazin-l-yl)pyridin-3-yl)pyrazolo[1,5-a]pyridine-3-carbonitrile] | – | 2.16 µM
Cn1cc(-c2cc(-c3ccc(N4CCC5(CC4)CC(N)C5)nc3)c3c(C#N)cnn3c2)cn1 [Example 544, 4-(6-(2-amino-7-azaspiro[3.5]nonan-7-yl)pyridin-3-yl)-6-(1-methyl-1H-pyrazol-4-yl)pyrazolo[1,5-a]pyridine-3-carbonitrile dihydrochloride] | – | 0.234 µM
C[C@H](c1ccccc1)N1CCN(c2ccc(-c3cc(-c4cnn(C)c4)cn4ncc(C#N)c34)cn2)CC1 [Example 421, (R)-6-(1-methyl-1H-pyrazol-4-yl)-4-(6-(4-(1-phenylethyl)piperazin-1-yl)pyridin-3-yl)pyrazolo[1,5-a]pyridine-3-carbonitrile dihydrochloride] | – | 1.62 µM
Cc1ccc(CC(=O)N2CCN(c3ccc(-c4cc(-c5cnn(C)c5)cn5ncc(C#N)c45)cn3)CC2)cn1 [Example 19, 6-(1-methyl-1H-pyrazol-4-yl)-4-(6-(4-(2-(6-methylpyridin-3-yl)acetyl)piperazin-1-yl)pyridin-3-yl)pyrazolo[1,5-a]pyridine-3-carbonitrile] | 0.546 µM | –
